Laboratory results as given in ChEMBL document CHEMBL1201862, “PubChem BioAssay data set” (2004).
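96-well plates; 48 h exposure; 5 concentrations. Endpoints by linear interpolation between flanking doses. Not reached: highest tested concentration assigned. Here, GI50 denotes the concentration required for 50% inhibition of growth.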 Active and inactive are the calls of the source. Cut-off read from the data, not from the text of the source: active = GI50 up to about 1.1 µM and inactive = higher.

Key:
Experiment in all cases: NCI anticancer screen, dose series, 48 h
UACC-62 = test system: UACC-62
BT-549 = test system: BT-549
UACC-257 = test system: UACC-257
SF-268 = test system: SF-268
NCI-H460 = test system: NCI-H460
TK-10 = test system: TK-10
PC-3 = test system: PC-3
HOP-62 = test system: HOP-62
SK-MEL-2 = test system: SK-MEL-2
CAKI-1 = test system: CAKI-1
SNB-75 = test system: SNB-75
RPMI-8226 = test system: RPMI-8226
HT-29 = test system: HT-29
SK-OV-3 = test system: SK-OV-3
LOX IMVI = test system: LOX IMVI
Malme-3M = test system: Malme-3M
HOP-92 = test system: HOP-92
NCI-H522 = test system: NCI-H522
OVCAR-4 = test system: OVCAR-4
HCC 2998 = test system: HCC 2998

Measured: GI50

CCOC(=O)c1c(NS(=O)(=O)c2ccc(C)cc2)sc2c1CCCC2
inactive: UACC-62 17.5 µM | BT-549 31.7 µM | UACC-257 35 µM | SF-268 26.1 µM | NCI-H460 24.3 µM | TK-10 28.4 µM | PC-3 16.2 µM | HOP-62 23.2 µM | SK-MEL-2 17.3 µM | CAKI-1 38.9 µM | SNB-75 27.1 µM | RPMI-8226 10.2 µM | HT-29 24.2 µM

O=C(c1ccccc1)N(CCCCNC(=O)C(F)(F)F)CCCNC(=O)C(F)(F)F
inactive: UACC-62 > 100 µM | SK-OV-3 > 100 µM | BT-549 > 100 µM | LOX IMVI > 100 µM | UACC-257 > 100 µM | SF-268 > 100 µM | Malme-3M > 100 µM | NCI-H460 > 100 µM | TK-10 > 100 µM | HOP-92 > 100 µM | NCI-H522 > 100 µM | OVCAR-4 > 100 µM | CAKI-1 > 100 µM | HCC 2998 > 100 µM | SNB-75 32.6 µM | RPMI-8226 > 100 µM | HT-29 > 100 µM

COc1cc(/C=C2\Sc3scc(-c4cccc([N+](=O)[O-])c4)[n+]3C2=O)cc(OC)c1OC
inactive: UACC-62 11.3 µM | SK-OV-3 23.6 µM | LOX IMVI 10.7 µM | UACC-257 12.5 µM | SF-268 11.8 µM | Malme-3M 13.8 µM | NCI-H460 11 µM | TK-10 10.7 µM | HOP-92 11.3 µM | NCI-H522 4.67 µM | PC-3 21.4 µM | HOP-62 16.6 µM | SK-MEL-2 17 µM | OVCAR-4 15.3 µM | CAKI-1 5.98 µM | HCC 2998 14.5 µM | SNB-75 1.47 µM | RPMI-8226 4.06 µM | HT-29 13.1 µM

C=C[C@@H](OCOCC[Si](C)(C)C)[C@@H](CC)OC(CCCOC(=O)C(C)(C)C)OC (stereo not given in full)
inactive: UACC-62 25.1 µM | SK-OV-3 > 100 µM | UACC-257 34.6 µM | SF-268 33.3 µM | NCI-H460 54.2 µM | TK-10 14.9 µM | HOP-92 81.1 µM | PC-3 37.3 µM | HOP-62 36.7 µM | SK-MEL-2 21.4 µM | OVCAR-4 26.4 µM | CAKI-1 53.7 µM | SNB-75 31 µM | RPMI-8226 41.7 µM | HT-29 29.4 µM

CC(=O)NC(C)c1ccc(/N=N/N2CCCC2)cc1 (stereo not given)
inactive: SK-OV-3 > 100 µM | LOX IMVI > 100 µM | UACC-257 > 100 µM | SF-268 > 100 µM | Malme-3M > 100 µM | TK-10 > 100 µM | HOP-92 > 100 µM | NCI-H522 > 100 µM | PC-3 > 100 µM | HOP-62 > 100 µM | SK-MEL-2 > 100 µM | OVCAR-4 > 100 µM | CAKI-1 > 100 µM | HCC 2998 > 100 µM | SNB-75 > 100 µM | HT-29 > 100 µM

CSC(=S)N(C)C [CYSTOGON]
inactive: UACC-62 > 100 µM | SK-OV-3 > 100 µM | BT-549 > 100 µM | LOX IMVI > 100 µM | UACC-257 > 100 µM | SF-268 > 100 µM | Malme-3M > 100 µM | NCI-H460 > 100 µM | TK-10 > 100 µM | HOP-92 > 100 µM | NCI-H522 > 100 µM | HOP-62 > 100 µM | SK-MEL-2 > 100 µM | CAKI-1 > 100 µM | SNB-75 80 µM | RPMI-8226 > 100 µM | HT-29 > 100 µM

COC12C=CC(CC1)C1C(=O)c3c(C)c(C)n(C)c3C(=O)C12 (stereo not given)
inactive: UACC-62 40.9 µM | SK-OV-3 > 100 µM | BT-549 > 100 µM | LOX IMVI > 100 µM | UACC-257 35.6 µM | SF-268 > 100 µM | Malme-3M > 100 µM | NCI-H460 > 100 µM | TK-10 > 100 µM | PC-3 > 100 µM | HOP-62 > 100 µM | SK-MEL-2 > 100 µM | SNB-75 67.6 µM | RPMI-8226 85.1 µM | HT-29 > 100 µM

CCO/C=C(\C(=O)OC)S(=O)(=O)c1ccc(C)cc1
inactive: UACC-62 > 100 µM | SK-OV-3 > 100 µM | LOX IMVI > 100 µM | UACC-257 > 100 µM | SF-268 > 100 µM | Malme-3M > 100 µM | NCI-H460 > 100 µM | TK-10 > 100 µM | HOP-92 > 100 µM | NCI-H522 > 100 µM | PC-3 > 100 µM | HOP-62 > 100 µM | SK-MEL-2 > 100 µM | OVCAR-4 > 100 µM | HCC 2998 > 100 µM | SNB-75 > 100 µM | RPMI-8226 > 100 µM | HT-29 > 100 µM

N#Cc1cc([N+](=O)[O-])ccc1NC(=O)C(=O)C(C(=O)c1ccc2ccccc2c1)C1OCc2ccccc21 (stereo not given)
inactive: UACC-62 7.46 µM | SK-OV-3 24.8 µM | LOX IMVI 7.19 µM | UACC-257 9.33 µM | SF-268 4.11 µM | Malme-3M 8.41 µM | NCI-H460 4.38 µM | TK-10 22.3 µM | HOP-92 7.01 µM | NCI-H522 7.29 µM | HOP-62 6.65 µM | SK-MEL-2 10.9 µM | OVCAR-4 > 25.5 µM | CAKI-1 9.4 µM | HCC 2998 10.3 µM | SNB-75 4.23 µM | RPMI-8226 5.2 µM | HT-29 12.9 µM

O=C(CSc1nc2ccc(I)cc2c(=O)n1Cc1ccccc1)N/N=C/c1ccccc1
inactive: UACC-62 39.2 µM | SK-OV-3 10.4 µM | LOX IMVI 41.7 µM | UACC-257 26.3 µM | SF-268 10.6 µM | NCI-H460 27 µM | TK-10 15.2 µM | HOP-92 11.5 µM | NCI-H522 18.1 µM | PC-3 10.3 µM | HOP-62 6.82 µM | SK-MEL-2 12 µM | OVCAR-4 34.2 µM | CAKI-1 4.01 µM | HCC 2998 67.1 µM | SNB-75 11.1 µM | RPMI-8226 82.4 µM | HT-29 47.6 µM

COc1nc(=O)n(C2CC(F)C(CO)O2)cc1C (stereo not given)
inactive: UACC-62 > 100 µM | BT-549 > 100 µM | LOX IMVI > 100 µM | UACC-257 > 100 µM | SF-268 > 100 µM | Malme-3M > 100 µM | NCI-H460 > 100 µM | TK-10 > 100 µM | NCI-H522 > 100 µM | HOP-62 > 100 µM | SK-MEL-2 > 10 µM | OVCAR-4 > 100 µM | CAKI-1 > 100 µM | HCC 2998 > 100 µM | RPMI-8226 > 100 µM | HT-29 > 100 µM

O=C1C(=O)N(c2ccc(Cl)cc2)C(=O)C(=O)C1c1nc2ccccc2o1
inactive: UACC-62 > 100 µM | SK-OV-3 > 100 µM | LOX IMVI > 100 µM | UACC-257 > 100 µM | SF-268 > 100 µM | Malme-3M > 100 µM | NCI-H460 > 100 µM | TK-10 > 100 µM | HOP-92 > 100 µM | NCI-H522 > 100 µM | HOP-62 > 100 µM | SK-MEL-2 > 100 µM | OVCAR-4 > 100 µM | CAKI-1 > 100 µM | HCC 2998 > 100 µM | SNB-75 > 100 µM | RPMI-8226 > 100 µM | HT-29 > 100 µM
